# According to patent US20240270748A1 (Merck Patent GmbH, priority 2021, published 2024):
# Counter-ions that a name gives are not always drawn.
# Tested on: YAP-TEAD interaction
# Assay: SK-HEP-1 reporter assay (8xTEAD responsive elements driving NanoLuc luciferase)
# Assay type: cell-based
# Details: Homo sapiens, SK-HEP1, SK-HEP-1 reporter assay; class symbols
# Method: To identify inhibitors of YAP-TEAD interaction, 8×TEAD responsive elements driving the NanoLuc® luciferase gene were stably integrated into SK-HEP-1 cells (ECACC #: 91091816).
# For the assay, cells were treated in duplicates with the test compounds in a 10-point dose, with the top concentration starting at 30 μM (final concentration in assay). After a 24 hour incubation at 37° C., 95% rH, and 5% CO2, a luciferase substrate/lysis reagent mix (NanoGlo™, Promega) was added to the cells, allowing the quantification of cellular luciferase activity.
# Cell Media: The cells were cultured in the following media: MEM, +10% FBS, +1× GlutaMAX, +1 mM Sodium-Pyruvate, +100 μM Non-essential amino acids, +0.1 mg/ml Hygromycin. The media used for the assay was: MEM (w/o Phenol Red), +10% FBS, +1× GlutaMAX, +1 mM Sodium-Pyruvate, +100 μM Non-essential amino acids, +0.5% Pen/Strep
# Reagents: The reagents used are listed below:
# Cell culture: The cells were examined using an inverted microscope to check for health and cell density. To dissociate adherent cells, the monolayer of cells was washed once with pre-warmed PBS. After removing the PBS, 3 ml pre-warmed Accutase® was added to a F75 flask, dispersed evenly and the flask was allowed to sit in incubator for ˜4-5 minutes.
# When a single cell suspension was obtained, 7 ml of prewarmed growth media was added and resuspended with the cells. The cell suspension was transferred to a sterile 15 ml conical centrifuge tube, and spun for 5 min at 300×g, RT. The supernatant was discarded and the pellet was resuspended in 10 ml of pre-warmed growth media.
# The total cell count was determined, and 20 μl of the desired cell number was added to each well of a 384 well plate using a Multidrop Combi. The plates were then incubated for 24 hours at 37° C., 95% rH, and 5% C02.
# Compound treatment: 24 hours after seeding, the cells were treated with compounds.
# A 1:333 dilution of compounds, diluted in DMSO, was made to get a final concentration of 0.3% DMSO per well. To transfer the compounds to the assay plate, […] was shot from Labcyte low dead volume plates to the cell plates containing 20 μl media/well with the ECHO 555 liquid handling system.
# After treatment, the cells were fed with 20 μl fresh pre-warmed assay media using a Multidrop combi.
# The assay plates were then incubated for another 24 h at 37° C., 95% rH, and 5% CO2.
# Luciferase readout: 24 h after treatment, the plates were taken out of the incubator and were allowed to equilibrate to RT. 30 μl of NanoGlo® reagent was added to the plates in the dark. Plates were shaken for 20 min on a Teleshake (˜1500 rpm) in the dark. The luminescence was then measured using an EnVision microplate reader. The IC50 values were generated using Genedata Screener®.
row,SMILES,IC50
1,"Cc1snc2c1c1cc(C(=O)N[C@@H](CO)C(C)C)ccc1n2-c1ccc(C(F)(F)F)cc1 [Example C92, N-[(2R)-1-hydroxy-3-methylbutan-2-yl]-3-methyl-8-[4-(trifluoromethyl)phenyl]-8H-[1,2]thiazolo[3,4-b]indole-5-carboxamide]",10 to 100 nM
2,"CC(NC(=O)c1ccc2c(c1)c1cn(C)nc1n2-c1ccc(C(F)(F)F)cc1)c1cccc(NC(=O)OC(C)(C)C)n1 (centres unmarked) [Example C165, tert-butyl N-{6-[1-({2-methyl-8-[4-(trifluoromethyl)phenyl]-2H,8H-pyrazolo[3,4-b]indol-5-yl}formamido)ethyl]pyridin-2-yl}carbamate]",100 to 10000 nM
3,"Cc1snc2c1c1cc(C(=O)NCc3cnccn3)ccc1n2-c1ccc(C(F)(F)F)cc1 [Example C78, 3-methyl-N-[(pyrazin-2-yl)methyl]-8-[4-(trifluoromethyl)phenyl]-8H-[1,2]thiazolo[3,4-b]indole-5-carboxamide]",10 to 100 nM
4,"Cn1cnc2c1c1cc(CO)ccc1n2-c1ccc(C(F)(F)F)cc1 [Example C132, {1-methyl-4-[4-(trifluoromethyl)phenyl]-1H,4H-imidazo[4,5-b]indol-7-yl}methanol]",100 to 10000 nM
5,"Cn1nc2c3cc(C(=O)N=[S@@](=O)(CCO)Cc4ccncc4)ccc3n(-c3ccc(C(F)(F)F)cc3)c2n1 (single isomer, unassigned) [Example C266]",100 to 10000 nM
6,"Cn1cc2c3cc(C(=O)N[C@@H](CO)c4ccccn4)cnc3n(-c3ccc(C(F)(F)F)cc3)c2n1 [Example C228, N-[(1R)-2-hydroxy-1-(pyridin-2-yl)ethyl]-4-methyl-7-[4-(trifluoromethyl)phenyl]-4,5,7,9-tetraazatricyclo[6.4.0.0^2,6]dodeca-1(8),2,5,9,11-pentaene-11-carboxamide]",10 to 100 nM
7,"Cn1nc2c3cc(C(=O)NC(CO)c4nncn4C)ccc3n(-c3ccc(C(F)(F)F)cc3)c2n1 (centres unmarked) [Example C274, N-[2-hydroxy-1-(4-methyl-4H-1,2,4-triazol-3-yl)ethyl]-2-methyl-4-[4-(trifluoromethyl)phenyl]-2H,4H-[1,2,3]triazolo[4,5-b]indole-7-carboxamide]",100 to 10000 nM
8,"C[C@H](CO)NC(=O)c1ccc2c(c1)c1cn(C)nc1n2C1CC2(C1)CC(F)(F)C2 [Example C207, 8-{6,6-difluorospiro[3.3]heptan-2-yl}-N-[(2R)-1-hydroxypropan-2-yl]-2-methyl-2H,8H-pyrazolo[3,4-b]indole-5-carboxamide]",100 to 10000 nM
9,"Cc1snc2c1c1cc(C(=O)N3CC[C@H](O)C3)ccc1n2-c1ccc(C(F)(F)F)cc1 [Example C49, (3S)-1-{3-methyl-8-[4-(trifluoromethyl)phenyl]-8H-[1,2]thiazolo [3,4-b]indole-5-carbonyl}pyrrolidin-3-ol]",100 to 10000 nM
10,"C=Cc1ccc2c(c1)c1c(ncn1C)n2-c1ccc(C(F)(F)F)cc1 [Example C179, 7-ethenyl-1-methyl-4-[4-(trifluoromethyl)phenyl]-1H,4H-imidazo [4,5-b]indole]",100 to 10000 nM
11,"CCCn1cc2c3cc(C(=O)N[C@@H](CO)c4ccccn4)ccc3n(-c3ccc(C(F)(F)F)cc3)c2n1 [Example C255, N-[(1R)-2-hydroxy-1-(pyridin-2-yl)ethyl]-2-propyl-8-[4-(trifluoromethyl)phenyl]-2H,8H-pyrazolo[3,4-b]indole-5-carboxamide]",> 10000 nM
12,"Cn1cc2c(n1)c1cc(S(=O)(=O)N3CCC[C@H]3c3cncnc3)ccc1n2-c1ccc(C(F)(F)F)cc1 (single isomer, unassigned) [Example C68]",100 to 10000 nM
13,"Cc1snc2c1c1cc(C(=O)NC3(CO)CCC3)ccc1n2-c1ccc(C(F)(F)F)cc1 [Example C82, N-[1-(hydroxymethyl)cyclobutyl]-3-methyl-8-[4-(trifluoromethyl)phenyl]-8H-[1,2]thiazolo[3,4-b]indole-5-carboxamide]",100 to 10000 nM
14,"Cn1cc2c3cc(NC(=O)CCl)ccc3n(-c3ccc(C(F)(F)F)cc3)c2n1 [Example 23, 2-chloro-N-[2-methyl-8-[4-(trifluoromethyl)phenyl]pyrazolo[3,4-b]indol-5-yl]acetamide]",> 10000 nM

# Results, then the compound that gave them:
row,IC50,SMILES
1,100 to 10000 nM,"Cn1cc2c3cc(C(=O)N=[S@@](=O)(CCO)Cc4cccnc4)ccc3n(-c3ccc(C(F)(F)F)cc3)c2n1 (single isomer, unassigned) [Example C190]"
2,100 to 10000 nM,"C[C@H](CCN)NC(=O)c1ccc2c(c1)c1cn(C)nc1n2-c1ccc(C(F)(F)F)cc1 [Example C27, N-[(2R)-4-aminobutan-2-yl]-2-methyl-8-[4-(trifluoromethyl)phenyl]-2H,8H-pyrazolo[3,4-b]indole-5-carboxamide]"
3,100 to 10000 nM,"C[C@H](NC(=O)c1ccc2c(c1)c1cn(C)nc1n2-c1ccc(C(F)(F)F)cc1)c1ccncc1 [Example C127, 2-methyl-N-[(1S)-1-(pyridin-4-yl)ethyl]-8-[4-(trifluoromethyl)phenyl]-2H,8H-pyrazolo[3,4-b]indole-5-carboxamide]"
4,100 to 10000 nM,"Cn1cc2c3cc(NC(=O)COC4CNC4)ccc3n(-c3ccc(C(F)(F)F)cc3)c2n1 [Example C243, 2-(azetidin-3-yloxy)-N-{2-methyl-8-[4-(trifluoromethyl)phenyl]-2H,8H-pyrazolo[3,4-b]indol-5-yl}acetamide formate]"
5,100 to 10000 nM,"Cn1cc2c3cc(C(=O)N[C@H](CCO)c4cncs4)ccc3n(-c3ccc(C(F)(F)F)cc3)c2n1 (single isomer, unassigned) [Example C163]"
6,100 to 10000 nM,"Cn1cc2c3cc(C(=O)NC4CCNCC4)ccc3n(-c3ccc(C(F)(F)F)cc3)c2n1 [Example C203, 2-methyl-N-(piperidin-4-yl)-8-[4-(trifluoromethyl)phenyl]-2H,8H-pyrazolo[3,4-b]indole-5-carboxamide trifluoroacetate]"
7,100 to 10000 nM,"CNCCC(C)NC(=O)c1ccc2c(c1)c1cn(C)nc1n2-c1ccc(C(F)(F)F)cc1 (centres unmarked) [Example C58, 2-methyl-N-[4-(methylamino)butan-2-yl]-8-[4-(trifluoromethyl)phenyl]-2H,8H-pyrazolo[3,4-b]indole-5-carboxamide]"
8,100 to 10000 nM,"Cn1cc2c3cc(C(=O)N=S(C)(=O)CCN)ccc3n(-c3ccc(C(F)(F)F)cc3)c2n1 (centres unmarked) [Example C36, N-[(2-aminoethyl) (methyl)οxο-λ^6-sulfanylidene]-2-methyl-8-[4-(trifluoromethyl)phenyl]-2H,8H-pyrazolo[3,4-b]indole-5-carboxamide]"
9,100 to 10000 nM,"Cn1cc2c3cc(C(N)=O)cnc3n(-c3ccc(C(F)(F)F)cc3)c2n1 [Example C118, 4-methyl-7-[4-(trifluoromethyl)phenyl]-4,5,7,9-tetraazatricyclo[6.4.0.0^2,6]dodeca-1(8),2,5,9,11-pentaene-11-carboxamide]"

# Same assay, conditions: Homo sapiens, SK-HEP1, SK-HEP-1 reporter assay; n.d. = value not detectable below threshold given in parentheses; ND = not determinable within the entire range
row,IC50,SMILES
1,> 30000 nM,"Cn1cc2c3nc(C(=O)N=S(C)(=O)CCO)ccc3n(-c3ccc(C(F)(F)F)cc3)c2n1 (centres unmarked) [Example C109, N-[(2-hydroxyethyl)(methyl)oxo-λ^6-sulfanylidene]-4-methyl-7-[4-(trifluoromethyl)phenyl]-4,5,7,12-tetraazatricyclo [6.4.0.0^2,6]dodeca-1(8),2,5,9,11-pentaene-11-carboxamide]"
2,> 30000 nM,"Cn1nnc2c3cc(S(N)(=O)=O)ccc3n(-c3ccc(C(F)(F)F)cc3)c21 [Example C11, 3-methyl-4-[4-(trifluoromethyl)phenyl]-3H,4H-[1,2,3]triazolo[4,5-b]indole-7-sulfonamide]"
3,> 1000 nM,"Cn1cc2c(n1)c1cc(S(=O)(=O)N3CCC[C@@H]3c3cncnc3)ccc1n2-c1ccc(C(F)(F)F)cc1 (single isomer, unassigned) [Example C61]"

# Same assay, conditions: SK-HEP-1 reporter assay; class symbols
row,IC50,SMILES
1,100 to 10000 nM,"COCCC(CO)NC(=O)c1ccc2c(c1)c1cn(C)nc1n2-c1ccc(C(F)(F)F)cc1 (single isomer, unassigned) [Example C246]"
2,100 to 10000 nM,"Cc1snc2c1c1cc(C(=O)N=S(C)(=O)CCCO)ccc1n2-c1ccc(C(F)(F)F)cc1 (single isomer, unassigned) [Example C103]"
3,100 to 10000 nM,"Cn1cnc2c1c1cc(C3CC(Oc4cncnc4)=NO3)ccc1n2-c1ccc(C(F)(F)F)cc1 (centres unmarked) [Example C215, 5-[(5-{1-methyl-4-[4-(trifluoromethyl)phenyl]-1H,4H-imidazo[4,5-b]indol-7-yl}-4,5-dihydro-1,2-oxazol-3-yl)oxy]pyrimidine]"
